Test results: PMC10877565, “Iso-ADP-Ribose Fluorescence Polarization Probe for the Screening of RNF146 WWE Domain Inhibitors” (ACS Chemical Biology, 2024)
Where “and” joins values, the source holds several entries; their conditions need not be identical. Identical values can stand only once. Entries after “also recorded” stand apart in the source; their conditions may differ. Like-named read-outs stand apart in the source and are kept apart here.

Experiments:
RNF146 WWE domain [1] = target: T1, RNF146 WWE domain (Homo sapiens, UniProt Q9NTX7); experiment: FP protein titration of tracer with RNF146 WWE; assay type: binding; conditions: tracer 20 nM, Tris buffer pH 8.0
T1 construct: PARP11, PARP14, TiPARP, DTX2, and RNF146 WWE domain plasmids were either cloned or purchased from Twist Biosciences; His tag (N); made in house; host or cells: E. coli BL21(DE3), pET28a
T1 sequence (Q9NTX7 92-168 limits assumed): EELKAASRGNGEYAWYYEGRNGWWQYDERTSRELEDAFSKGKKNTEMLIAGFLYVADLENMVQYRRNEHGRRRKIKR
Experimental: Having obtained the tracer molecule TAMRA-isoADPr, we then examined its binding affinity by FP protein titration experiments, where a fixed concentration of the tracer (20 nM) was titrated with increasing concentrations of RNF146 WWE protein in Tris buffer (pH 8.0), yielding a binding curve with an increasing mP shift (ΔmP) until a plateau was observed.
(§1) The purified WWE domain proteins were 3-fold serially diluted from 20 μM to ∼5 nM in the assay buffer (25 mM Tris pH 8.0, 150 mM NaCl, and 0.01% Tween-20). In the assay, 50 μL of the protein solution at each concentration was transferred to a 96-well black plate (Corning, #3915), followed by the addition of 50 μL of TAMRA-isoADPr (40 nM, 2X) in the assay buffer to reach a final volume of 100 μL. The plate was allowed to stand at RT for 30 min and then scanned on Cytation5 equipped with an FP filter cube (Agilent, part number: 8040562, Ex: 530/25, Em: 590/35). mP values were calculated using the equation below [drawing 1] where F// and F⊥ are the parallel and perpendicular fluorescence intensities, respectively, and G is the grating factor of the instrument, which was calibrated so that 20 nM 5-TAMRA has an mP shift of 50. The obtained mP data were fitted in the one-site-specific binding model implemented in GraphPad Prism 9.4.1 (GraphPad Software, Inc.) to give the Kd value using the equation below [drawing 2]

DTX2 WWE = target: T2, DTX2 WWE (Homo sapiens, UniProt Q86UW9); experiment: FP titration of WWE domains with TAMRA-isoADPr; assay type: binding; conditions: same conditions as RNF146 WWE titration
T2 sequence (Q86UW9 98-174 limits assumed): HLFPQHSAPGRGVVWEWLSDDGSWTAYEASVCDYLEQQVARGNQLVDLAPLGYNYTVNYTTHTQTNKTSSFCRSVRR
Description: (§2) We then screened the tracer TAMRA-isoADPr against WWE domains of some other proteins, including PARP11, PARP14, HUWE1, TiPARP, and DTX2, under the same conditions. […] To check the folding of purified WWE domains, we obtained the circular dichroism (CD) spectra for the purified WWE domains, and the results indicated proper folding of all purified proteins (Figure S5). […] The isoADPr binding pocket of RNF146 WWE is special in that the entire pocket is largely positively charged with multiple arginine and lysine residues to interact with both phosphate groups of isoADPr, while this feature is missing in other WWE domains containing proteins (Figure S2). Indeed, RNF146 WWE is the only reported high-affinity binder of the isoADPr monomer, so it is likely that other WWE domains tested are simply too weak binders to show any significant binding at the concentrations tested.
as §1

HUWE1 WWE [2] = target: T3, HUWE1 WWE (Homo sapiens, UniProt Q7Z6Z7); experiment: FP titration of WWE domains with TAMRA-isoADPr; assay type: binding; conditions: same conditions as RNF146 WWE titration
T3 construct: The HUWE1 WWE domain was purified as previously reported; made in house
T3 sequence (Q7Z6Z7 1603-1680 limits assumed): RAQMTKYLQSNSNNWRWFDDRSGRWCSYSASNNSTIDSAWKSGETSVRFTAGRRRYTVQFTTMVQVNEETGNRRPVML
Description: as §2, §1

PARP11 WWE = target: T4, PARP11 WWE (Homo sapiens, UniProt Q9NR21); experiment: FP titration of WWE domains with TAMRA-isoADPr; assay type: binding; conditions: same conditions as RNF146 WWE titration
T4 construct: PARP11, PARP14, TiPARP, DTX2, and RNF146 WWE domain plasmids were either cloned or purchased from Twist Biosciences; made in house; host or cells: E. coli BL21(DE3), pET28a
T4 sequence (Q9NR21 22-106 limits assumed): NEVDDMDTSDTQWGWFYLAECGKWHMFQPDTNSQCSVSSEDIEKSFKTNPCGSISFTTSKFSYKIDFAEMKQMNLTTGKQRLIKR
Description: as §2, §1

PARP14 WWE = target: T5, PARP14 WWE (Homo sapiens, UniProt Q460N5); experiment: FP titration of WWE domains with TAMRA-isoADPr; assay type: binding; conditions: same conditions as RNF146 WWE titration
T5 construct: PARP11, PARP14, TiPARP, DTX2, and RNF146 WWE domain plasmids were either cloned or purchased from Twist Biosciences; made in house; host or cells: E. coli BL21(DE3), pET28a
T5 sequence (Q460N5 1523-1601 limits assumed): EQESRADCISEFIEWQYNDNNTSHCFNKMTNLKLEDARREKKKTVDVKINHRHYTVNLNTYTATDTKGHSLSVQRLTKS
Description: as §2, §1

TiPARP WWE = target: T6, TiPARP WWE (Homo sapiens, UniProt Q7Z3E1); experiment: FP titration of WWE domains with TAMRA-isoADPr; assay type: binding; conditions: same conditions as RNF146 WWE titration
T6 construct: PARP11, PARP14, TiPARP, DTX2, and RNF146 WWE domain plasmids were either cloned or purchased from Twist Biosciences; made in house; host or cells: E. coli BL21(DE3), pET28a
T6 sequence (Q7Z3E1 332-410 limits assumed): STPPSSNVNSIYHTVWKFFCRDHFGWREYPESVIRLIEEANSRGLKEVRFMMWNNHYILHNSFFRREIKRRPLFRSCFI
Description: as §2, §1

RNF146 WWE domain [3] = target: T1, RNF146 WWE domain; experiment: Competitive FP-based binding assay with TAMRA-isoADPr tracer; conditions: for IC50: TAMRA-isoADPr 20 nM, RNF146 WWE 100 nM; for Hillslope: IC50 curve of fragment hits
RNF146 WWE [4] = target: T7, RNF146 WWE (Homo sapiens, UniProt Q9NTX7); conditions: isothermal titration calorimetry; read-out: reported Kd; cited from earlier work
T7 construct: PARP11, PARP14, TiPARP, DTX2, and RNF146 WWE domain plasmids were either cloned or purchased from Twist Biosciences; His tag (N); made in house; host or cells: E. coli BL21(DE3), pET28a
T7 sequence (Q9NTX7 92-168 limits assumed): T1 sequence (Q9NTX7 92-168 limits assumed)

HUWE1 WWE [5] = target: T3, HUWE1 WWE; conditions: reported; cited from earlier work
RNF146 WWE [6] = target: T7, RNF146 WWE; experiment: Biolayer interferometry, immobilized biotin-isoADPr with RNF146 WWE; assay type: binding; conditions: BLI
Description: To further validate that our probe indeed can bind to RNF146 WWE, we sought to measure the Kd value of TAMRA-isoADPr toward RNF146 WWE through biolayer interferometry (BLI). A typical BLI experiment relies on an antibody-coated biosensor tip that can capture the protein of interest, and it was then dipped into solutions containing potential interacting molecules (here, referred to as the analyte).[20] The interaction between the protein and the analyte can be measured in real time through monitoring the reflected light pattern upon complex formation on the biosensor surface, giving useful kinetics information, including kon, koff, and Kd. […] Therefore, we synthesized a biotin-labeled isoADPr compound (11, Figure 3A) from 3′-azido-isoADPr, which is structurally analogous to TAMRA-isoADPr. Biotin-isoADPr was immobilized onto SA biosensors that were then dipped into RNF146 WWE solutions of varying concentrations in multiple association–dissociation cycles (Figure S1B). […] The BLI experiment further supports that our tracer design strategy works for RNF146 WWE.
The binding of biotin-isoADPr to the RNF146 WWE was monitored and measured on an Octet RH16 biolayer interferometer. Three replicate streptavidin biosensor tips (SA) were loaded with 1 μM biotin-isoADPr in the kinetics buffer (PBS with 0.02% Tween-20 and 0.1% BSA) for 300 s. After a 300 s baseline step, the loaded sensor tips were moved to sample wells containing RNF146 WWE protein at 0, 12, 49, 187, 750, 3000, 9000, and 18000 nM in the kinetics buffer sequentially in multiple cycles, with each cycle consisting a 300 s association step in the sample well and a 300 s dissociation step in the buffer well. The volume of each well was 200 μL. A reference biosensor without biotin-isoADPr loading was used to exclude the possibilities of nonspecific binding, and reference wells without RNF146 WWE protein were used for blank subtraction. Data were processed and curves were fitted with a 1:1 best-fit model in Octet BLI Analysis software.

RNF146 WWE [7] = target: T7, RNF146 WWE; experiment: Fragment library screening by competitive FP, 384-well; assay type: binding; conditions: 100 μM, 1% DMSO
Experimental: To test the performance of the established FP assay in high-throughput formats, we conducted a pilot screen where isoADPr was used as the positive control, and Enamine Essential Fragments Library, which contains 320 fragments, was used as a test case for potential inhibitors. The test library was screened at 100 μM in 1% DMSO under the established conditions in duplicates in two 384-well plates (Figure 4A). In each plate, four controls were used: buffer control, tracer control, negative control, and positive control. Buffer control allowed the detection of background fluorescence, while tracer and negative controls gave mP values of the free tracer and maximally bound tracer, to which inhibition rates of fragment candidates were normalized. […] From these control wells, different assay parameters could be calculated. One important FP assay parameter is the assay window (ΔmP), which is calculated as the difference between the mP value recorded for the bound tracer (i.e., negative control) and the mP value recorded for the free tracer (i.e., tracer control). […] Another parameter general to all HTS assays is the screening window coefficient (Z′ factor). A Z′ factor value between 0.5 and 1 is suitable for HTS.[26] […] Moreover, the coefficients of variation (CV) of both negative and positive control wells were low.
Using epMotion 96 (Eppendorf), 49.5 μL of the assay solution (100 nM RNF146 WWE and 20 nM TAMRA-isoADPr) or control solution (tracer-only, buffer-only, and positive control with additional 100 μM isoADPr) was transferred from a 96-well mother plate to a 384-well black plate (Corning, #3575). […] For each fragment and positive and negative control well, the relative percent binding of the tracer was calculated as described above. Z’ factor was calculated with the following equation [drawing 5] where σP and σN are the standard deviations of ΔmP values of positive and negative control wells, while μP and μN are the mean ΔmP values of positive and negative control wells.

WWE domains = experiment: FP titration of different WWE domains using TAMRA-ADPr; assay type: binding; conditions: Figure S3, n = 3
Description: as §2
Figure S3. FP titration of different WWE domains using TA M R A -ADPr (n= 3). Data of SA RS-C oV 2 N sp3
Macro (black) is shown here as comparison.
F i g u re S 4. Attempted IC50 measurement and chemical structure of Z1203162033. […]

CN(C)c1ccc2c(c1)Oc1cc(N(C)C)ccc1C21OC(=O)c2cc(C(=O)NCCCCCCNC(=O)CCc3cn([C@H]4[C@@H](O[C@H]5O[C@H](COP(=O)(O)O)[C@@H](O)[C@H]5O)[C@H](n5cnc6c(N)ncnc65)O[C@@H]4COP(=O)(O)O)nn3)ccc21 [TAMRA-isoADPr]
Kd (RNF146 WWE domain [1]): 0.0452 µM | binding of tracer (DTX2 WWE): no binding; also recorded: none of these WWE domains could bind the tracer | binding of tracer (HUWE1 WWE [2]): no binding; also recorded: none of these WWE domains could bind the tracer | binding of tracer (PARP11 WWE): no binding; also recorded: none of these WWE domains could bind the tracer | binding of tracer (PARP14 WWE): no binding; also recorded: none of these WWE domains could bind the tracer | binding of tracer (TiPARP WWE): no binding; also recorded: none of these WWE domains could bind the tracer

[N-]=[N+]=N[C@H]1[C@@H](O[C@H]2O[C@H](COP(=O)(O)O)[C@@H](O)[C@H]2O)[C@H](n2cnc3c(N)ncnc32)O[C@@H]1COP(=O)(O)O [3′-azido-isoADPr]
fold more potent than isoADPr (RNF146 WWE domain [3]; IC50 compared with isoADPr): 2 fold | IC50 (RNF146 WWE domain [3]; 96-well): 0.273 µM

Nc1ncnc2c1ncn2[C@@H]1O[C@H](COP(=O)(O)O)[C@@H](O)[C@H]1O[C@H]1O[C@H](COP(=O)(O)O)[C@@H](O)[C@H]1O [isoADPr, iso-ADP-ribose]
IC50 (RNF146 WWE domain [3]; 96-well): 0.623 µM | Kd (RNF146 WWE [4]): 0.37 µM | Kd (HUWE1 WWE [5]): 13 µM

O=C(O)c1sccc1-n1cccc1 [compound 13]
Hillslope (RNF146 WWE domain [3]): -1.834 | IC50 (RNF146 WWE domain [3]; fragment hits): 39.5 µM and 40 µM

Nc1ncnc2c1ncn2[C@@H]1O[C@H](COP(=O)(O)O)[C@@H](n2cc(COCCOCCOCCOCCNC(=O)CCCC[C@@H]3SC[C@@H]4NC(=O)N[C@@H]43)nn2)[C@H]1O[C@H]1O[C@H](COP(=O)(O)O)[C@@H](O)[C@H]1O [biotin-isoADPr]
Kd (RNF146 WWE [6]; SA biosensor, 1:1 fit): 0.644 µM | kon (RNF146 WWE [6]; mean ± error, n = 3): 65700 M⁻¹ s⁻¹ | koff (RNF146 WWE [6]; mean ± error, n = 3, read-out: kdis): 0.0423 s⁻¹

COc1cc(CC(=O)O)ccc1O [Z1203162033]
binding strength in attempted IC50 measurement (RNF146 WWE domain [3]; Figure S4): much weaker binder | percent binding of tracer (RNF146 WWE [7]; AVERAGE of two plates): 43.4% | percent binding of tracer (RNF146 WWE [7]; PLATE1): 43.6% | percent binding of tracer (RNF146 WWE [7]; PLATE2): 43.3%

O=C(O)c1cc2occc2[nH]1 [compound 12]
Hillslope (RNF146 WWE domain [3]): -1.134 | IC50 (RNF146 WWE domain [3]; fragment hits): 86.2 µM and 86 µM

CN(C)c1ccc2c(c1)Oc1cc(N(C)C)ccc1C21OC(=O)c2cc(C(=O)NCCCCCCNC(=O)CCc3cn([C@H]4O[C@H](COP(=O)(O)OP(=O)(O)OC[C@H]5O[C@@H](n6cnc7c(N)ncnc76)[C@H](O)[C@@H]5O)[C@@H](O)[C@H]4O)nn3)ccc21 [TAMRA-ADPr]
binding of TAMRA-ADPr (WWE domains): does not bind
